From patent US11179450B2, “Long chain antigen containing interepitope sequence that promotes antigen presentation to T cells” (MIE UNIVERSITY, priority 2013, dated 2021)

How the values were obtained:
[1] = tested on: MA p265 specific CD8+ T cells; assay: Specific CD8+ T cell induction in mice, intracellular cytokine staining (MA p265 epitope); type: in vivo, BALB/c mice; settings: FIG. 6; comparing one to six tyrosines
Experimental: (§1) Long chain peptide antigens MEN, all containing three types of mouse CD8+ T cell epitope sequences (MA p265 (Sequence No. 27), NY p81 (Sequence No. 29), and mERK2 9m (Sequence No. 28)), were synthesized. The interepitope sequences between the respective epitopes were one to six consecutive tyrosines (Sequence Nos. 1 and 9-12). Vaccines containing the respective long chain peptide antigens were administered to mice in the same manner as in FIG. 1 and the frequencies of CD8+ T cells specific to the respective epitope sequences were measured by the intracellular cytokine staining method.
as §1, with “five” for “one”, “ten” for “six”, “13-15).” for “9-12).”
Each CHP/long chain peptide complex as the vaccine and the CpG oligo DNA as the adjuvant were administered at the same time to a mouse. Administration was performed by subcutaneous injection on the back of the mouse. […]

[2] = tested on: CD11c+ cells (dendritic cells); assay: In vitro uptake of FAM-labeled long chain peptide antigens by antigen-presenting cells (dendritic cells); type: cell-based; settings: FIG. 8, complexed with CHP, 10 μg/mL, mouse spleen cells, 60 minutes, in comparison to G6 and P6
Text: Long chain peptide antigens MEN, all containing three types of mouse CD8+ T cell epitope sequences (MA p265 (Sequence No. 27), NY p81 (Sequence No. 29), and mERK2 9m (Sequence No. 28)), were synthesized. The interepitope sequences between the respective epitopes were respectively six consecutive tyrosines (Y6), six consecutive glycines (G6), or six consecutive prolines (P6) (Sequence Nos. 1-3). Each long chain peptide antigen, labeled with the fluorescent dye FAM, was complexed with CHP and administered in vitro to mouse dendritic cells and mouse macrophages. After 60 minutes, the fluorescence uptakes into the respective cells were measured by flow cytometry with the P5 fraction in the figure being deemed to correspond to the dendritic cells and the P6 fraction in the figure being deemed to correspond to the macrophages.
In vitro uptake of the long chain peptide antigens by antigen-presenting cells was measured as follows. Each long chain peptide labeled with a fluorescent dye was complexed with CHP by the method described above. Spleen cells separated from a normal mouse were added at 1×10^6 cells/0.5 mL/well to a 24-well plate. […] The uptake of the fluorescence-labeled long chain peptide antigens by CD11c^+ cells (dendritic cells) and F4/80^+ cells (macrophages) were observed using flow cytometry.

In the case of “SNPARYEFLYYYYYYQYIHSANVLYYYYYYRGPESRLL (Long chain peptide antigen, containing three types of mouse CD8+ T cell epitope sequences (MA p265, NY p81, and mERK2 9m)) [MEN(Y6)]”, the “induction of specific CD8+ T cells, MA p265 (first epitope)” value [1] is reported as “highest” and the “fluorescence uptake into dendritic cells” value [2] is reported as “significantly higher”.
